Experiments:
B-Raf delta1-415 = B-Raf delta1-415 (Homo sapiens, UniProt P15056); test: B-Raf kinase inhibition (MAPH filter plate, 33P-ATP, MEK1 substrate); conditions: read-out: Biochemical IC50 B-Raf
How it was run: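 IC50 values come from dilution series (top 10 μM) measured by scintillation counting of 33P-labelled MEK1 retained on H3PO4-washed filters. Reactions ran 1 h at room temperature in pH 7.0 Mops buffer with MgCl2, MnCl2 and DTT, using 12.5 μCi/ml [γ-33P]ATP and B-Raf delta1-415 titrated to 50% turnover.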

[1] = target: C-Raf Raf-1 (truncated), active (Homo sapiens, UniProt P04049, Y340D/Y341D); test: C-Raf kinase inhibition (MAPH assay / IMAP assay); conditions: read-out: Biochemical IC50 C-Raf
How it was run: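 Truncated active human C-Raf (Y340D/Y341D), room temperature, top inhibitor concentration 10 μM in a dilution series for IC50. MAPH: 57.8 μM myelin basic protein with [γ-33P]ATP, kinase at 10% ATP turnover, 1 h, filter-bound radioactivity. IMAP: 400 nM fluorescent peptide, 20 mM Hepes pH 7.5 with 10 mM MnCl2, kinase at 50% turnover, fluorescence polarization.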

HT-29 tumor cells = test: Anti-proliferative activity, SRB assay; format: cell-based, human; conditions: Homo sapiens, HT-29, 72 h, 72 hours exposure, read-out: CELLULAR IC50 HT-29
How it was run: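 IC50 derived from % inhibition relative to DMSO controls, measured by sulforhodamine B binding (OD570) after TCA fixation. Cells (3,000-15,000 per well) were seeded a day ahead, then treated with graded compound concentrations for 72 hours.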

B-Raf delta1-415, sequence (P15056 416-766): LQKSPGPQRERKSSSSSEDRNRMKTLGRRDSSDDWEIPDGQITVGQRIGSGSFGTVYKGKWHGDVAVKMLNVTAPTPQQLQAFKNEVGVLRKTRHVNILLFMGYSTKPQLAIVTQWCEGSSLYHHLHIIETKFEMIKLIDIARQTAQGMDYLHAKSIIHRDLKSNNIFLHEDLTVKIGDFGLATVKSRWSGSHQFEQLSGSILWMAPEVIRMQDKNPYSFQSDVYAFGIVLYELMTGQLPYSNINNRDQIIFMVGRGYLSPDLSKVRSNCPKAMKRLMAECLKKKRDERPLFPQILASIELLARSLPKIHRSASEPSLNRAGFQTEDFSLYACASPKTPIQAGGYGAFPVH
C-Raf Raf-1 (truncated), active, sequence (P04049 306-648 Y340D/Y341D): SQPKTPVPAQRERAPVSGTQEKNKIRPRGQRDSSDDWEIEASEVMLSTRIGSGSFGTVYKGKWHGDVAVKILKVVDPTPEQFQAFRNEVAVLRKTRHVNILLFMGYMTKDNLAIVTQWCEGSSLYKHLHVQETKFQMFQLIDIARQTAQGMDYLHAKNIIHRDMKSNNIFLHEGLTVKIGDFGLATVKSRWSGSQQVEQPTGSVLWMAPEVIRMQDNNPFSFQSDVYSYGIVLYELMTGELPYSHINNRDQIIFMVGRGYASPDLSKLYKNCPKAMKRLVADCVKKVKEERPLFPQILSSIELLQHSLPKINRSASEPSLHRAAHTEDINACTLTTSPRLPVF

Row | Structure (SMILES) | IC50 (B-Raf delta1-415) | IC50 [1] | IC50 (HT-29 tumor cells)
1 | COc1cccc(Cl)c1-c1cc2cnc(Nc3ccc(N4CCN(C)CC4)cc3)nc2n(OC)c1=O [Compound 39, 6-(2-Chloro-6-methoxyphenyl)-8-methoxy-2-(4-(4-methylpiperazino)-phenylamino)-pyrido[2,3-d]pyrimidin-7-one] | < 500 nM | < 100 nM | < 1000 nM
2 | COn1c(=O)c(-c2c(Cl)cccc2Cl)cc2cnc(Nc3cc(CO)ccc3F)nc21 [Compound 27, 6-(2,6-Dichlorophenyl)-2-(2-fluoro-5-(hydroxymethyl)phenylamino)-8-methoxy-pyrido[2,3-d]pyrimidin-7-one] | > 1000 nM | < 100 nM | < 10000 nM
3 | COn1c(=O)c(-c2c(Cl)cccc2Cl)cc2cnc(Nc3cc(C(=O)O)n(C)c3)nc21 [Compound 54, 2-(5-Carboxy-1-methyl-pyrrol-3-yl)-amino-6-(2,6-dichlorophenyl)-8-methoxy-pyrido[2,3-d]pyrimidin-7-one] | < 500 nM | < 100 nM | < 10000 nM

Second part, the compound after the results:

Row | IC50 (B-Raf delta1-415) | IC50 [1] | IC50 (HT-29 tumor cells) | Structure (SMILES)
4 | < 500 nM | < 100 nM | < 10000 nM | COn1c(=O)c(-c2cc(NC(=O)c3ccccc3)ccc2Cl)cc2cnc(Nc3ccccc3)nc21 [Compound 29]
5 | < 100 nM | < 100 nM | < 1000 nM | COn1c(=O)c(-c2c(Cl)cccc2Cl)cc2cnc(Nc3ccc(S(C)(=O)=O)cc3)nc21 [Compound 11, 6-(2,6-Dichlorophenyl)-8-methoxy-2-(4-methylsulfonylphenylamino)-pyrido[2,3-d]pyrimidin-7-one]
6 | > 1000 nM | < 500 nM | < 1000 nM | COn1c(=O)c(-c2cc(NC(=O)c3cccc(C(F)(F)F)c3)ccc2Cl)cc2cnc(Nc3ccccc3)nc21 [Compound 35]
7 | < 500 nM | < 100 nM | < 10000 nM | COn1c(=O)c(-c2ccccc2Cl)cc2cnc(Nc3ccccc3)nc21 [Compound 22, 6-(2-Chlorophenyl)-8-methoxy-2-phenylamino-pyrido[2,3-d]pyrimidin-7-one]
8 | < 500 nM | < 100 nM | < 10000 nM | COn1c(=O)c(-c2cc(NC(C)=O)ccc2Cl)cc2cnc(Nc3ccccc3)nc21 [Compound 59]
